According to ChEMBL document CHEMBL5303573, “Mapping human microbiome drug metabolism by gut bacteria and their genes” (Nature, 2019):

Tests used:
[1] = The drug is tested on Dorea formicigenerans strain: ATCC27755 for biotransformation. The drug concentrations were measured before and after a 12-h incubation by liquid-chromatography-coupled mass spectrometry (LC–MS); settings: 2 µM
[2] = The drug is tested on Enterobacter cancerogenus strain: ATCC35316 for biotransformation. The drug concentrations were measured before and after a 12-h incubation by liquid-chromatography-coupled mass spectrometry (LC–MS); settings: 2 µM
[3] = akkermansia muciniphila, 12 h, 2 µM
Description: The drug is tested on Akkermansia muciniphila strain: ATCC BAA-835 for biotransformation. The drug concentrations were measured before and after a 12-h incubation by liquid-chromatography-coupled mass spectrometry (LC–MS)

[4] = The drug is tested on Eubacterium rectale strain: ATCC33656 for biotransformation. The drug concentrations were measured before and after a 12-h incubation by liquid-chromatography-coupled mass spectrometry (LC–MS); settings: agathobacter rectalis, 2 µM
[5] = The drug is tested on Bacteroides fragilis strain: ATCC43859 for biotransformation. The drug concentrations were measured before and after a 12-h incubation by liquid-chromatography-coupled mass spectrometry (LC–MS); settings: 2 µM
[6] = The drug is tested on Escherichia coli strain: BW25113 for biotransformation. The drug concentrations were measured before and after a 12-h incubation by liquid-chromatography-coupled mass spectrometry (LC–MS); settings: 2 µM
[7] = The drug is tested on Clostridium ramosum strain: DSM1402 for biotransformation. The drug concentrations were measured before and after a 12-h incubation by liquid-chromatography-coupled mass spectrometry (LC–MS); settings: thomasclavelia ramosa, 2 µM
[8] = enterocloster bolteae, 12 h, 2 µM
Description: The drug is tested on Clostridium bolteae strain: ATCCBAA-613 for biotransformation. The drug concentrations were measured before and after a 12-h incubation by liquid-chromatography-coupled mass spectrometry (LC–MS)

[9] = The drug is tested on Ruminococcus lactaris strain: ATCC29176 for biotransformation. The drug concentrations were measured before and after a 12-h incubation by liquid-chromatography-coupled mass spectrometry (LC–MS); settings: 2 µM
[10] = The drug is tested on Collinsella aerofaciens strain: ATCC25986 for biotransformation. The drug concentrations were measured before and after a 12-h incubation by liquid-chromatography-coupled mass spectrometry (LC–MS); settings: 2 µM
[11] = The drug is tested on Parabacteroides merdae strain: ATCC43184 for biotransformation. The drug concentrations were measured before and after a 12-h incubation by liquid-chromatography-coupled mass spectrometry (LC–MS); settings: 2 µM
[12] = The drug is tested on Bacteroides sp. WH2 strain: WH2 for biotransformation. The drug concentrations were measured before and after a 12-h incubation by liquid-chromatography-coupled mass spectrometry (LC–MS); settings: bacteroides sp. wh2, 12 h, 2 µM
[13] = parabacteroides johnsonii, 12 h, 2 µM
Description: The drug is tested on Parabacteroides johnsonii strain: DSM18315 for biotransformation. The drug concentrations were measured before and after a 12-h incubation by liquid-chromatography-coupled mass spectrometry (LC–MS)

[14] = The drug is tested on Edwardsiella tarda strain: ATCC23685 for biotransformation. The drug concentrations were measured before and after a 12-h incubation by liquid-chromatography-coupled mass spectrometry (LC–MS); settings: 2 µM
[15] = The drug is tested on Alistipes indistinctus strain: DSM22520 for biotransformation. The drug concentrations were measured before and after a 12-h incubation by liquid-chromatography-coupled mass spectrometry (LC–MS); settings: 2 µM
[16] = parabacteroides distasonis, 12 h, 2 µM
Description: The drug is tested on Parabacteroides distasonis strain: ATCC8503 for biotransformation. The drug concentrations were measured before and after a 12-h incubation by liquid-chromatography-coupled mass spectrometry (LC–MS)

[17] = The drug is tested on Ruminococcus gnavus strain: ATCC29149 for biotransformation. The drug concentrations were measured before and after a 12-h incubation by liquid-chromatography-coupled mass spectrometry (LC–MS); settings: mediterraneibacter gnavus, 2 µM
[18] = The drug is tested on Bacteroides pectinophilus strain: ATCC43243 for biotransformation. The drug concentrations were measured before and after a 12-h incubation by liquid-chromatography-coupled mass spectrometry (LC–MS); settings: 2 µM
[19] = bacteroides intestinalis, 12 h, 2 µM
Description: The drug is tested on Bacteroides intestinalis strain: DSM17393 for biotransformation. The drug concentrations were measured before and after a 12-h incubation by liquid-chromatography-coupled mass spectrometry (LC–MS)

[20] = bacteroides thetaiotaomicron, 12 h, 2 µM
Description: The drug is tested on Bacteroides thetaiotaomicron strain: VPI-5482 for biotransformation. The drug concentrations were measured before and after a 12-h incubation by liquid-chromatography-coupled mass spectrometry (LC–MS)

| SMILES | Bacterial Biotransformation [1] | Bacterial Biotransformation [2] | Bacterial Biotransformation [3] | Bacterial Biotransformation [4] | Bacterial Biotransformation [5] | Bacterial Biotransformation [6] | Bacterial Biotransformation [7] | Bacterial Biotransformation [8] | Bacterial Biotransformation [9] | Bacterial Biotransformation [10] | Bacterial Biotransformation [11] | Bacterial Biotransformation [12] | Bacterial Biotransformation [13] | Bacterial Biotransformation [14] | Bacterial Biotransformation [15] | Bacterial Biotransformation [16] | Bacterial Biotransformation [17] | Bacterial Biotransformation [18] | Bacterial Biotransformation [19] | Bacterial Biotransformation [20] |
| --- | --- | --- | --- | --- | --- | --- | --- | --- | --- | --- | --- | --- | --- | --- | --- | --- | --- | --- | --- | --- |
| CCCCC(=O)N(Cc1ccc(-c2ccccc2-c2nnn[nH]2)cc1)[C@H](C(=O)O)C(C)C | Compound NOT metabolized | Compound NOT metabolized | Compound NOT metabolized | Compound NOT metabolized | Compound metabolized | Compound NOT metabolized | Compound NOT metabolized | Compound NOT metabolized | Compound NOT metabolized | Compound NOT metabolized | Compound NOT metabolized | Compound NOT metabolized | Compound NOT metabolized | Compound NOT metabolized | Compound NOT metabolized | Compound metabolized | Compound NOT metabolized | Compound NOT metabolized | Compound metabolized |  |
| CC(=O)O[C@H]1C(=O)[C@@]2(C)[C@H]([C@H](OC(=O)c3ccccc3)[C@]3(O)C[C@H](OC(=O)[C@H](O)[C@@H](NC(=O)c4ccccc4)c4ccccc4)C(C)=C1C3(C)C)[C@]1(OC(C)=O)CO[C@@H]1C[C@@H]2O [PACLITAXEL] | Compound NOT metabolized | Compound NOT metabolized | Compound NOT metabolized | Compound NOT metabolized | Compound NOT metabolized | Compound NOT metabolized | Compound NOT metabolized | Compound NOT metabolized |  | Compound NOT metabolized | Compound NOT metabolized | Compound NOT metabolized | Compound NOT metabolized | Compound NOT metabolized | Compound NOT metabolized | Compound NOT metabolized | Compound NOT metabolized | Compound NOT metabolized | Compound NOT metabolized | Compound NOT metabolized |
| COC(=O)[C@H]1[C@H]2C[C@@H]3c4[nH]c5cc(OC)ccc5c4CCN3C[C@H]2C[C@@H](OC(=O)c2cc(OC)c(OC)c(OC)c2)[C@@H]1OC [RESERPINE] | Compound NOT metabolized | Compound NOT metabolized | Compound NOT metabolized | Compound NOT metabolized | Compound NOT metabolized | Compound NOT metabolized | Compound NOT metabolized | Compound NOT metabolized | Compound NOT metabolized | Compound NOT metabolized | Compound NOT metabolized | Compound NOT metabolized | Compound NOT metabolized | Compound NOT metabolized | Compound NOT metabolized | Compound NOT metabolized | Compound NOT metabolized |  | Compound NOT metabolized | Compound NOT metabolized |
